One experiment addresses T1, p-AXL (Homo sapiens, UniProt P30530).
T1 construct: expressed in transfected cells; host or cells: HEK293T
T1 sequence (P30530 26-894): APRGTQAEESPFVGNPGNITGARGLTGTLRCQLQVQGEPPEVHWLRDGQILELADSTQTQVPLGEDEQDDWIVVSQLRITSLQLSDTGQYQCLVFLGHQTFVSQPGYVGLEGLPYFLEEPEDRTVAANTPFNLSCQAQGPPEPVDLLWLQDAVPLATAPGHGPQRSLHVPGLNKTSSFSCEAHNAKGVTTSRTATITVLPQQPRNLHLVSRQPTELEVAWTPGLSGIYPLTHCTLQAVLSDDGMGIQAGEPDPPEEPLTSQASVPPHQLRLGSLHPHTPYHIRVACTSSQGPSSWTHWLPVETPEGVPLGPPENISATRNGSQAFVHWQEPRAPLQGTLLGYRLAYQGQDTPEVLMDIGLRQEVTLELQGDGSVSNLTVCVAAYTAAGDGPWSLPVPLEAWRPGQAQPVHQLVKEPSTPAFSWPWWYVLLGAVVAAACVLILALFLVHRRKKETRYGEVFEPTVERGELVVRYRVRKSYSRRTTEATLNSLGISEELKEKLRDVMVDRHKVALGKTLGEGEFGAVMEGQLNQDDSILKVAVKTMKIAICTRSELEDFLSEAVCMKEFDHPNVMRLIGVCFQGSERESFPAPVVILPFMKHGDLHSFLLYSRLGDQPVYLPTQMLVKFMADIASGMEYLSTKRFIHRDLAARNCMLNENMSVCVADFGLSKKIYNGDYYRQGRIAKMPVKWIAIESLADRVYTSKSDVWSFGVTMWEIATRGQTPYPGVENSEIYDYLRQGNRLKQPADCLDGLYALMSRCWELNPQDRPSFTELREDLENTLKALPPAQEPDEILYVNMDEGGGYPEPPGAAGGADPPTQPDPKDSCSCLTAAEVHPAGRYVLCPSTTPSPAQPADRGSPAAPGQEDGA
Nature of the experiment: Axl phosphorylation inhibition ELISA in HEK293T cells transfected with NanoLuc-tagged AXL. In kind it is cell-based. As to conditions: 1 h compound incubation, media (OptiMEM). The method, boiled down: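 HEK293T cells transiently transfected one day earlier with NanoLuc-tagged AXL were exposed to 22-point 2-fold compound dilutions for 1 h at 37° C (70,000 cells/well), then lysed. Lysates captured on anti-phospho-tyrosine coated plates for 2 h; bound p-AXL read by NanoLuc luminescence; IC50 from 4-parameter logistic fit.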

A further experiment concerns the target T2, Axl (Homo sapiens, UniProt P30530).
T2 sequence (P30530 26-894): T1 sequence (P30530 26-894)
The experiment in a line: Biochemical potency, HTRF KinEASE-TK kinase assay. On the set-up: purchased Invitrogen. Conditions: 5 nM AXL, 700 μM ATP. A digest of the protocol:
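HTRF 665/620 readout after a 2 h RT kinase reaction (final 700 μM ATP, 800 nM biotinylated TK substrate, 1% DMSO, HEPES pH 7.4 buffer) gave percent activity. Final enzyme was 5 nM for AXL, 1 nM for TYRO3 or MER, each preincubated 1 h with compound.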
(Time-resolved FRET reads energy transfer from a long-lived donor to a nearby acceptor.)

Bounds are passed on as bounds.

As a reminder, the IC50 is the point on the concentration scale where inhibition reaches its midpoint. A high value points to weaker potency in that assay. As for `Cn1ncnc1-c1ccc(-c2c[nH]c3ncc(-c4ccc5c(c4)CC[C@@H](N4C6COCC4C6)CC5)cc23)cc1` [Example 133, 6-[(7S)-2-{3-[4-(1-Methyl-1H-1,2,4-triazol-5-yl)phenyl]-1H-pyrrolo[2,3-b]pyridin-5-yl}-6,7,8,9-tetrahydro-5H-benzo[7]annulen-7-yl]-3-oxa-6-azabicyclo[3.1.1]heptane], the IC50 against p-AXL and at Axl was under 0.1 µM in each case.
With `COC[C@H]1CCN([C@H]2CCc3ccc(-c4cnc5[nH]cc(-c6ccc(-c7nc(C)cnc7C)cc6)c5c4)cc3CC2)C1` [Example 63, 3-(4-{5-[(7S)-7-[(3S)-3-(Methoxymethyl)pyrrolidin-1-yl]-6,7,8,9-tetrahydro-5H-benzo[7]annulen-2-yl]-1H-pyrrolo[2,3-b]pyridin-3-yl}phenyl)-2,5-dimethylpyrazine], the IC50 at p-AXL and against Axl was under 0.1 µM throughout.
Consider `CCn1ncnc1-c1ccc(-c2n[nH]c3ncc(-c4ccc5c(c4)CC[C@@H](N4C6COCC4C6)CC5)cc23)cc1` [Example 138, 6-[(7S)-2-{3-[4-(1-Ethyl-1H-1,2,4-triazol-5-yl)phenyl]-1H-pyrazolo[3,4-b]pyridin-5-yl}-6,7,8,9-tetrahydro-5H-benzo[7]annulen-7-yl]-3-oxa-6-azabicyclo[3.1.1]heptane], for which the IC50 against p-AXL and against Axl was under 0.1 µM throughout.
On to `Cc1cnc(C)c(-c2ccc(-c3n[nH]c4ncc(-c5ccc6c(c5)CC[C@@](C)(N5CCC[C@H]5C)CC6)cc34)cc2)n1` [Example 64, 2,5-Dimethyl-3-(4-{5-[(7S)-7-methyl-7-[(2R)-2-methylpyrrolidin-1-yl]-6,7,8,9-tetrahydro-5H-benzo[7]annulen-2-yl]-1H-pyrazolo[3,4-b]pyridin-3-yl}phenyl)pyrazine], for which the IC50 on p-AXL and on Axl was under 0.1 µM each time.
Regarding `Cc1cccnc1-c1ccc(-c2c[nH]c3nnc(-c4ccc5c(c4)CC[C@@H](N4C6COCC4C6)CC5)cc23)cc1` [Example 36, 6-[(7S)-3-[5-[4-(3-Methylpyridin-2-yl)phenyl]-7H-pyrrolo[2,3-c]pyridazin-3-yl]-6,7,8,9-tetrahydro-5H-benzo[7]annulen-7-yl]-3-oxa-6-azabicyclo[3.1.1]heptane], the IC50 at p-AXL was over 1 µM; against Axl it was under 0.1 µM.
The matching figures for `Cc1ccc(C)c(-c2ccc(-c3n[nH]c4ncc(-c5ccc6c(c5)CC[C@@H](N5C[C@@H]7C[C@H]5CO7)CC6)cc34)cc2)n1` [Example 141, (1S,4S)-5-[(7S)-2-{3-[4-(3,6-Dimethylpyridin-2-yl)phenyl]-1H-pyrazolo[3,4-b]pyridin-5-yl}-6,7,8,9-tetrahydro-5H-benzo[7]annulen-7-yl]-2-oxa-5-azabicyclo[2.2.1]heptane]: under 0.1 µM and under 0.1 µM.
As to `Cn1c(-c2ccc(-c3c[nH]c4ncc(-c5ccc6c(c5)CC[C@@H](N5C7COCC5C7)CC6)cc34)cc2)cccc1=O` [Example 39, 1-Methyl-6-[4-[5-[(7S)-7-(3-oxa-6-azabicyclo[3.1.1]heptan-6-yl)-6,7,8,9-tetrahydro-5H-benzo[7]annulen-3-yl]-1H-pyrrolo[2,3-b]pyridin-3-yl]phenyl]pyridin-2-one], the IC50 against p-AXL and against Axl was under 0.1 µM each time.
In the case of `Cc1cccnc1-c1cnc(-c2c[nH]c3ncc(-c4ccc5c(c4)CC[C@@H](N4C6COCC4C6)CC5)cc23)cn1` [Example 184, 6-[(7S)-2-{3-[5-(3-Methylpyridin-2-yl)pyrazin-2-yl]-1H-pyrrolo[2,3-b]pyridin-5-yl}-6,7,8,9-tetrahydro-5H-benzo[7]annulen-7-yl]-3-oxa-6-azabicyclo[3.1.1]heptane], the IC50 against p-AXL and against Axl was under 0.1 µM each time.
For the compound `CO[C@H]1C[C@@H](N[C@H]2CCc3ccc(-c4cnc5[nH]nc(-c6ccc(-c7ncccc7C)cn6)c5c4)cc3CC2)C1` [Example 108, (7S)-2-(3-{3-Methyl-[2,3′-bipyridin]-6′-yl}-1H-pyrazolo[3,4-b]pyridin-5-yl)-N-[cis-3-methoxycyclobutyl]-6,7,8,9-tetrahydro-5H-benzo[7]annulen-7-amine], the IC50 against p-AXL and on Axl was under 0.1 µM each time.
As for `Cc1cccnc1-c1ccc(-c2n[nH]c3ncc(-c4ccc5c(c4)CCC(N4CCCC4)C5)cc23)cc1` (stereo not drawn) [Example 19, 3-Methyl-2-(4-{5-[6-(pyrrolidin-1-yl)-5,6,7,8-tetrahydronaphthalen-2-yl]-1H-pyrazolo[3,4-b]pyridin-3-yl}phenyl)pyridine], the IC50 is 0.1 to 1 µM at p-AXL and under 0.1 µM against Axl.
The matching figures for `Cc1cccnc1-c1cnc(-c2c[nH]c3ncc(-c4ccc5c(c4)CC[C@@H](N4C6COCC4C6)CC5)cc23)nc1` [Example 37, 6-[(7S)-3-[3-[5-(3-Methylpyridin-2-yl)pyrimidin-2-yl]-1H-pyrrolo[2,3-b]pyridin-5-yl]-6,7,8,9-tetrahydro-5H-benzo[7]annulen-7-yl]-3-oxa-6-azabicyclo[3.1.1]heptane]: under 0.1 µM and under 0.1 µM.
The matching figures for `Cc1ccc(C(C)(C)O)nc1-c1ccc(-c2n[nH]c3ncc(-c4ccc5c(c4)CC[C@@H](N4C6COCC4C6)CC5)cc23)cc1` [Example 192, 2-[5-Methyl-6-(4-{5-[(7S)-7-{3-oxa-6-azabicyclo[3.1.1]heptan-6-yl}-6,7,8,9-tetrahydro-5H-benzo[7]annulen-2-yl]-1H-pyrazolo[3,4-b]pyridin-3-yl}phenyl)pyridin-2-yl]propan-2-ol]: 0.1 to 1 µM and under 0.1 µM.
The matching figures for `Cc1ccc(C)c(-c2ccc(-c3c[nH]c4ncc(-c5ccc6c(c5)CC[C@@H](N5C7COCC5C7)CC6)cc34)cc2)n1` [Example 137, 6-[(7S)-2-{3-[4-(3,6-Dimethylpyridin-2-yl)phenyl]-1H-pyrrolo[2,3-b]pyridin-5-yl}-6,7,8,9-tetrahydro-5H-benzo[7]annulen-7-yl]-3-oxa-6-azabicyclo[3.1.1]heptane]: under 0.1 µM and under 0.1 µM.
As for `Cc1cccnc1-c1ccc(-c2n[nH]c3ncc(-c4ccc5c(c4)CCN(C4CCCC4)CC5)cc23)cc1` [Example 24, 3-Cyclopentyl-7-{3-[4-(3-methylpyridin-2-yl)phenyl]-1H-pyrazolo[3,4-b]pyridin-5-yl}-2,3,4,5-tetrahydro-1H-3-benzazepine], the concentration for half-maximal inhibition (IC50) is 0.1 to 1 µM at p-AXL and under 0.1 µM on Axl.
On to `Cc1ccc(C)c(-c2ccc(-c3c[nH]c4ncc(-c5ccc6c(c5)CC[C@@](C)(N5CCC[C@H]5C)CC6)cc34)cc2)n1` [Example 147, 3,6-Dimethyl-2-(4-{5-[(7S)-7-methyl-7-[(2R)-2-methylpyrrolidin-1-yl]-6,7,8,9-tetrahydro-5H-benzo[7]annulen-2-yl]-1H-pyrrolo[2,3-b]pyridin-3-yl}phenyl)pyridine], for which the IC50 against p-AXL and on Axl was under 0.1 µM each time.
Take `Cc1ccc[n+]([O-])c1-c1ccc(-c2c[nH]c3ncc(-c4ccc5c(c4)CC[C@@H](N4C6COCC4C6)CC5)cc23)cc1` [Example 16, 3-Methyl-2-(4-{5-[(7S)-7-{3-oxa-6-azabicyclo[3.1.1]heptan-6-yl}-6,7,8,9-tetrahydro-5H-benzo[7]annulen-2-yl]-1H-pyrrolo[2,3-b]pyridin-3-yl}phenyl)pyridin-1-ium-1-olate]: the IC50 at p-AXL and against Axl was under 0.1 µM in each case.
As for `Cc1cc(F)cnc1-c1ccc(-c2c[nH]c3ncc(-c4ccc5c(c4)CC[C@@](C)(N4CCC[C@H]4C)CC5)cc23)cc1` [Example 34, 3-[4-(5-Fluoro-3-methylpyridin-2-yl)phenyl]-5-[(7S)-7-methyl-7-[(2R)-2-methylpyrrolidin-1-yl]-5,6,8,9-tetrahydrobenzo[7]annulen-3-yl]-1H-pyrrolo[2,3-b]pyridine], the IC50 on p-AXL and at Axl was under 0.1 µM throughout.
Regarding `Cc1cc(F)cnc1-c1ccc(-c2c[nH]c3ncc(-c4ccc5c(c4)CC[C@@H](N4C6COCC4C6)CC5)cc23)nc1` [Example 35, 6-[(7S)-3-[3-[5-(5-Fluoro-3-methylpyridin-2-yl)pyridin-2-yl]-1H-pyrrolo[2,3-b]pyridin-5-yl]-6,7,8,9-tetrahydro-5H-benzo[7]annulen-7-yl]-3-oxa-6-azabicyclo[3.1.1]heptane], the IC50 on p-AXL and against Axl was under 0.1 µM in each case.

For the origin of these results see patent US12195482B1 (Arcus Biosciences, Inc., priority 2022, dated 2025).
